Measurements: the supplement of paper PMC11061612

What was measured:
[1] = system: YT (Other Blood Carcinomas); assay: Bliss excess, mean over the matrix (fraction); higher = more synergy
Method in brief: (§1)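 Bliss excess equals the observed combination effect minus the expected value EA + EB − EA·EB, where EA and EB are the effects of each agent alone. Combination Emax is the second-highest inhibition within the matrix. Inhibition was scaled from CellTiter-Glo 2.0 luminescence, with 0 set by vehicle wells and 1 by blank wells, after 72 hours of two-drug dosing of cells plated in 1536-well plates.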

D-392MG (Glioblastoma) = assay: as above
Method in brief: as §1

[2] = system: SW948 (Colorectal Carcinoma); assay: as above
Method in brief: as §1

[3] = system: SK-UT-1 (Other Solid Carcinomas); assay: as above
Method in brief: as §1

[4] = system: TYK-nu (Ovarian Carcinoma); assay: as above
Method in brief: as §1

EW-22 (Ewing's Sarcoma) [5] = assay: as above
Method in brief: as §1

[6] = system: SK-LMS-1 (Other Solid Carcinomas); assay: as above
Method in brief: as §1

[7] = system: RCC10RGB (Kidney Carcinoma); assay: as above
Method in brief: as §1

[8] = system: BICR78 (Oral Cavity Carcinoma); assay: as above
Method in brief: as §1

Saos-2 (Osteosarcoma) [9] = assay: as above
Method in brief: as §1

[10] = system: P31-FUJ (Acute Myeloid Leukemia); assay: as above
Method in brief: as §1

[11] = system: EFM-192A (Breast Carcinoma); assay: as above
Method in brief: as §1

[12] = system: PA-TU-8902 (Pancreatic Carcinoma); assay: as above
Method in brief: as §1

[13] = system: HCC-827 (Lung Adenocarcinoma); assay: as above
Method in brief: as §1

[14] = system: 647-V (Bladder Carcinoma); assay: combination Emax (second highest fraction inhibited in the dose matrix, 72 h); higher = more inhibition; extreme values may be limits of the assay
Method in brief: as §1

CS1 (Chondrosarcoma) = assay: as above
Method in brief: as §1

EW-22 (Ewing's Sarcoma) [15] = assay: as above
Method in brief: as §1

[16] = system: HOP-92 (Non-Small Cell Lung Carcinoma); assay: as above
Method in brief: as §1

Saos-2 (Osteosarcoma) [17] = assay: as above
Method in brief: as §1

[18] = system: SW48 (Colorectal Carcinoma); assay: as above
Method in brief: as §1

Structure (SMILES) | Bliss excess [1] | Bliss excess (D-392MG (Glioblastoma)) | Bliss excess [2] | Bliss excess [3] | Bliss excess [4] | Bliss excess (EW-22 (Ewing's Sarcoma) [5]) | Bliss excess [6] | Bliss excess [7] | Bliss excess [8] | Bliss excess (Saos-2 (Osteosarcoma) [9]) | Bliss excess [10] | Bliss excess [11] | Bliss excess [12] | Bliss excess [13] | combination Emax [14] | combination Emax (CS1 (Chondrosarcoma)) | combination Emax (EW-22 (Ewing's Sarcoma) [15]) | combination Emax [16] | combination Emax (Saos-2 (Osteosarcoma) [17]) | combination Emax [18]
NC1(C(=O)N[C@@H](CCO)c2ccc(Cl)cc2)CCN(c2ncnc3[nH]ccc23)CC1 [Capivasertib] + C[C@@H]1COCCN1C2=NC(=NC(=C2)C3(CC3)[S@](=N)(=O)C)C4=C5C=CNC5=NC=C4 [AZD6738] (first compound max 10 µM, 7x7, partner max 10 µM) | -0.0249 | -0.0393 | -0.102 | -0.0983 | -0.109 | -0.0047 | 0.0094 | -0.134 | 0.0163 | -0.0717 | -0.145 | -0.0546 | 0.0247 | -0.0421 | 0.76 | 0.621 | 0.908 | 0.541 | 0.586 | 0.759
COc1nnc2ccc(N3CCC(c4ccc(OCCN5CCN(C)C(=O)[C@H]5C)cc4)CC3)nn12 [AZD5153] + C[C@@H]1COCCN1C2=NC(=NC(=C2)C3(CC3)[S@](=N)(=O)C)C4=C5C=CNC5=NC=C4 [AZD6738] (first compound max 1 µM, 7x7, partner max 10 µM) | -0.0687 | -0.0033 | -0.0493 | 0.0401 | -0.0386 | -0.0258 | -0.0163 | 0.0638 | 0.0056 | 0.0391 | -0.0685 | 0.0551 | 0.0565 | 0.08 | 0.789 | 0.661 | 0.927 | 0.374 | 0.843 | 0.752
COc1cccc(OCCCN)c1-c1cc(Nc2cnc(C#N)cn2)n[nH]1 [Prexasertib] + CCc1c2c(nc3ccc(O)cc13)-c1cc3c(c(=O)n1C2)COC(=O)[C@]3(O)CC [SN-38] (first compound max 1 µM, 7x7, partner max 0.3 µM) | -0.0527 | -0.11 | 0.151 | -0.0125 | -0.0899 | -0.0916 | -0.0239 | -0.081 | -0.0236 | -0.0064 | -0.0507 | 0.0304 | 0.049 | 0 | 1 | 0.882 | 0.94 | 0.873 | 0.887 | 0.889
Cc1cc2ncnn2cc1Nc1ncc2c(n1)n(C1CCOCC1)c(=O)n2C [AZD7648] + C[C@@H]1COCCN1C2=NC(=NC(=C2)C3(CC3)[S@](=N)(=O)C)C4=C5C=CNC5=NC=C4 [AZD6738] (first compound max 10 µM, 7x7, partner max 10 µM) | -0.0476 | 0.0217 | -0.0422 | 0.0471 | -0.034 | 0.0058 | 0.0215 | 0.0076 | -0.0018 | -0.0169 | 0.0131 | 0.0421 | 0.0186 | 0.0048 | 0.585 | 0.591 | 0.851 | 0.493 | 0.561 | 0.681
COc1cc2c(cc1OCCCCCOc1cc3c(cc1OC)C(=O)N1C=C(C)C[C@H]1C=N3)N=C[C@@H]1CC(C)=CN1C2=O [SG3199] + O=C(c1cc(Cc2n[nH]c(=O)c3ccccc23)ccc1F)N1CCN(C(=O)C2CC2)CC1 [Olaparib] (first compound max 0.001 µM, 7x7, partner max 10 µM) | 0.019 | -0.0623 | -0.0092 | -0.0181 | -0.046 | -0.0544 | -0.0375 | -0.052 | -0.0456 | -0.0277 | -0.0645 | -0.053 | -0.0291 | -0.0194 | 0.276 | 0.178 | 0.894 | 0.192 | 0.125 | 0.0699
Cc1cc2ncnn2cc1Nc1ncc2c(n1)n(C1CCOCC1)c(=O)n2C [AZD7648] + CN(C)CCCOc1ccc(-c2ccc3ncc4c(c3c2)n(C2CCOCC2)c(=O)n4C)cn1 [AZD0156] (first compound max 10 µM, 7x7, partner max 1 µM) | -0.0389 | -0.0405 | 0.0122 | 0.0143 | -0.0465 | 0.0335 | 0.0028 | -0.0735 | 0.0054 | -0.016 | 0.0381 | -0.0119 | -0.0013 | 0.0386 | 0.222 | 0.306 | 0.467 | 0.231 | 0.171 | 0.329
NC1(C(=O)N[C@@H](CCO)c2ccc(Cl)cc2)CCN(c2ncnc3[nH]ccc23)CC1 [Capivasertib] + COc1nnc2ccc(N3CCC(c4ccc(OCCN5CCN(C)C(=O)[C@H]5C)cc4)CC3)nn12 [AZD5153] (first compound max 10 µM, 7x7, partner max 1 µM) | 0.007 | -0.015 | -0.0082 | 0.0637 | 0.0114 | 0.08 | 0.0014 | 0.0221 | 0.0135 | -0.0028 | 0.0066 | 0.0866 | -0.0841 | 0.0472 | 0.502 | 0.455 | 0.834 | 0.405 | 0.554 | 0.828
